Results taken from paper PMC6620467, “Gram-scale synthesis of FICZ, a photoreactive endogenous ligand of the aryl hydrocarbon receptor” (Scientific Reports, 2019).
Read-outs that look alike come from different tables or passages of the source. One block for each compound: values may come before it.

How the values were obtained:
human AhR = target: T1, human AhR (Homo sapiens, UniProt P35869); assay: cyp1a1 promoter β-lactamase reporter gene assay for AhR activation (CYP1A1-bla-LS180 cells)
T1 sequence (P35869 11-848): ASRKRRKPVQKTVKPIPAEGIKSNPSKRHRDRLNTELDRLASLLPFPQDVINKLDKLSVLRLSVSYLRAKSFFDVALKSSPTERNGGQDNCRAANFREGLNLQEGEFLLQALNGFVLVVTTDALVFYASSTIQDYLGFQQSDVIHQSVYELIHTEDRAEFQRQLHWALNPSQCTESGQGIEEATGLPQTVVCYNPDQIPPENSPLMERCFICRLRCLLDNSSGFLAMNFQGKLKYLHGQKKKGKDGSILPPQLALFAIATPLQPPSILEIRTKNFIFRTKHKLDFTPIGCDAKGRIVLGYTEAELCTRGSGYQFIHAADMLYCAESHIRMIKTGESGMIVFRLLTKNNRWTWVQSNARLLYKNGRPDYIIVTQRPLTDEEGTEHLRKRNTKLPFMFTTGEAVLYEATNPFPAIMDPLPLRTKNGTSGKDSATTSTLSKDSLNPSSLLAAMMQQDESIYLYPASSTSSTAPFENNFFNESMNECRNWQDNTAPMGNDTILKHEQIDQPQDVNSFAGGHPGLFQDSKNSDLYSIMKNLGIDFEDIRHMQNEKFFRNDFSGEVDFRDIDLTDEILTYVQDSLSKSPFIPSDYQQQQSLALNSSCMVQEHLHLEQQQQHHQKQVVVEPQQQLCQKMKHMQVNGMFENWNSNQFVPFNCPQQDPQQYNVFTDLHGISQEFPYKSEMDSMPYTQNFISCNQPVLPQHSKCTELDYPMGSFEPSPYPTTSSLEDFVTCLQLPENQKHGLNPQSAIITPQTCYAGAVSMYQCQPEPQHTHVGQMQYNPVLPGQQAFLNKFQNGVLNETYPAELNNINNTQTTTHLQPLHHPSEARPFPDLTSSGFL
Source text: We employed a commercially available assay for AhR ligands in which a cell line had been engineered to express a reporter gene composed of the cyp1a1 promoter driving expression of a β-lactamase reporter. AhR ligands were detected by the increased expression of β-lactamase, which was quantified using a fluorescent substrate (see Materials and methods).
Intestinal human colon adenocarcinoma LS180 cells stably transfected with a β-lactamase reporter gene downstream of the cyp1a1 promoter were obtained from Invitrogen (catalog number K1678) and were used in accordance with the protocol described at https://www.thermofisher.com/document-connect/document-connect.html?url=https%3A%2F%2Fassets.thermofisher.com%2FTFS-Assets%2FLSG%2Fmanuals%2Fgeneblazer_cyp1a1blals0180_man.pdf, but adapted to run in 384-well plates.
CYP1A1-bla-LS180 cells (Invitrogen, catalog number K1678) were suspended in assay media (OptiMEM, 1% charcoal stripped serum, 1 mM sodium pyruvate, 0.1 mM NEAA) at a density of 20000 cells/mL. The compounds were dissolved in DMSO at a concentration of 10 mM. 0.5 mL of the compound solutions were added to a 384-well black, clear bottom, cell-coat assay plate (Griener Bio-one). […] A 50 μL aliquot of cell suspension was added to each well, and the compound plate was incubated overnight at 37 °C in 5% CO2. The plate was equilibrated at room temperature for 30 min before adding 10 μL of the LiveBLAzer™ FRET B/G substrate solution (Life Technologies) to each well. The plate was incubated for 90 min at room temperature in the dark before being read on a Perkin Elmer Envision using the bottom read fluorescence program with excitation at 400 nm and detection at 460/535 nm.

[1] = Photostability test of DMSO-d6 solutions by 1H NMR (maleic acid internal reference); type: physicochemical
Procedure: Maleic acid was employed as an internal NMR reference.
The solution was analyzed by ^1H NMR as time point zero. 0.5 mL of the solution was placed into separate ICH 20 mL Flint clear glass bottles that were irradiated in a photostability chamber with illuminance set to 11000 lux as measured by a digital light meter. The contents of separate bottles were checked by ^1H NMR at 1 h, 2 h, 3 h, 4 h, 5 h, 7 h, 10 h, 16 h, and 24 h. […] A parallel experiment was run under the same conditions with ICZ (12.4 mg) and maleic acid (6.4 mg) in 5.1 mL of DMSO-d6 and stability data collected at 1 h, 2 h, 4 h, 6 h, 12 h, 18 h, and 24 h.
The solution was analyzed by ^1H NMR as time point zero. 0.5 mL of the solution was placed into separate ICH 20 mL Flint clear glass bottles that were placed in direct sunlight with illuminance of 63000 lux as measured by a digital light meter (from 1:00 PM to 3:40 PM on March 17, 2015, a sunny day with minimal clouds in Durham, NC, USA). The contents of separate bottles were checked by ^1H NMR at 1.5 min, 3 min, 10 min, 30 min, and 93 min.
The solution was analyzed by NMR as time point zero. The solution was then divided into four ICH 20 ml Flint clear glass bottles: Bottle A was exposed to air and was unprotected from the bright light; Bottle B: was flushed with nitrogen and left unprotected from the bright light; Bottle C was exposed to air but covered by aluminum-foil; and Bottle D was flushed with nitrogen and covered by aluminum foil. All bottles were placed in a photostability chamber with illuminance set to 11100 lux. The contents of each bottle were checked by ^1H NMR at 1 d, 4 d, 8 d, 14 d and 21 d using the quantification procedure described in Method 1.

EC50 (human AhR): 400 ± 100 nM | potency as AhR agonist relative to FICZ (1), times less potent (human AhR; cyp1a1 reporter gene assay): 40 times
Compound: O=C(O)c1c2[nH]c3ccccc3c2cc2[nH]c3ccccc3c12 [CICZ (9), 5,11-Dihydroindolo[3,2-b]carbazole-6-carboxylic acid]

EC50 (human AhR): 160 ± 40 nM
Compound: CCOC(=O)c1c2[nH]c3ccccc3c2cc2[nH]c3ccccc3c12 [Compound 10, Ethyl 5,11-dihydroindolo[3,2-b]carbazole-6-carboxylate]

EC50 (human AhR): 160 ± 90 nM
Compound: OCc1c2[nH]c3ccccc3c2cc2[nH]c3ccccc3c12 [Compound 11, (5,11-Dihydroindolo[3,2-b]carbazol-6-yl)methanol]

EC50 (human AhR): 70 ± 15 nM | decrease in potency for activation of AhR versus FICZ (1) (human AhR; cyp1a1 reporter gene assay): at least 7 fold
Compound: O=C1c2[nH]c3ccccc3c2C(=O)c2[nH]c3ccccc3c21 [Compound 13, Indolo[3,2-b]carbazole-6,12-dione]

time to complete decomposition ([1]; Condition A: DMSO solution, bright light (11000 lux) and air): ≤ 1 days | decomposition, Condition B ([1]; DMSO solution, bottle flushed with nitrogen, 11000 lux light, over 28 d): much slower | decomposition, Condition D ([1]; DMSO solution, removal of air and protection from light, over 28 d): slowest rate of decomposition | half-life at 3 mg/mL ([1]; DMSO-d6 solution in clear Flint glass bottle, DMSO-d6 solution, air and light, 11000 lux, clear Flint bottle, read-out: half-life of decomposition (converted)): ~3 h | half-life at 2.125 mg/mL ([1]; DMSO-d6 solution in clear Flint glass bottle, DMSO-d6 solution, air, direct sunlight 63000 lux, read-out: half-life of decomposition): ~0.5 h | stability as pure solid ([1]; pure solid): stable
Compound: O=Cc1c2[nH]c3ccccc3c2cc2[nH]c3ccccc3c12 [FICZ (1), 6-Formylindolo[3,2-b]carbazole]
decomposition, Condition C ([1]; DMSO solution, air, protected from light with aluminum foil, over 28 d): further slowed, but did not prevent the decomposition

decomposition rate relative to FICZ (1), times slower ([1]; DMSO-d6 solution, air and light, 11000 lux, identical conditions): at least 10 times | EC50 (human AhR): 30 ± 10 nM
Compound: c1ccc2c(c1)[nH]c1cc3c(cc12)[nH]c1ccccc13 [ICZ (12), reference compound]

Compound: Clc1cc2c(cc1Cl)Oc1cc(Cl)c(Cl)cc1O2 [TCDD, reference compound]
EC50 (human AhR; read-out: EC50 of standard AhR ligand in cyp1a1 reporter assay, control experiments, data not shown): 0.31 nM
